“Also recorded” adds a separate entry of the source.
Columns and labels:
Assay type in all cases: cell-based, human
MECP2-KO neurons [1] = assay: Calcium imaging of neurons; details: vs untreated KO
Method: (§1) Pharmacologic treatment. One-month old cortical organoids were treated for 1 mo with either Nefiracetam (10 μM) or PHA 543613 (10 μM) during media changes.
Calcium imaging. Calcium imaging was performed as described in Chailangkarn et al. Briefly, PSC-derived neuronal networks were lentivirally transduced with a Syn::RFP reporter construct. Cultures were washed with Krebs HEPES buffer and incubated with Fluo-4AM (Molecular Probes/Invitrogen, Carlsbad, Calif., USA). A Hamamatsu ORCA-ER digital camera (Hamamatsu Photonics, Japan) with 488 nm filter on an Olympus IX81 inverted fluorescence confocal microscope (Olympus Optical, Tokyo, Japan) acquired 5000 frames at 28 Hz in a 256×256 pixel region (100× magnification). Images were acquired with MetaMorph7.7 (MDS Analytical Technologies, Sunnyvale, Calif., USA) and analyzed with ImageJ and Matlab7.2 (Mathworks, Natick, Mass., USA). Syn::RFP+ neurons were selected following tetrodotoxin blockade of calcium transients. A 95th-percentile threshold of amplitude for calcium spikes was set for event detection; signal amplitude is presented as fluorescence change (ΔF/F) following background subtraction.

MECP2-KO neurons [2] = assay: Multi-electrode array (MEA) of neurons
Method: as §1
Multi-electrode array (MEA) analysis. MEA analyses of neurons and cortical organoids were performed as described in Nageshappa et al. (Mol. Psychiatry 21:178-188 (2016)). Briefly, 3D neurosphere cultures of NPC derivation were plated on dual-chamber MEA; spontaneous spike activity was evaluated with the MED64 System (Panasonic). Glutamatergic (AP5, NBQX), GABAergic (Gabazine), and gap channel (Mefloquine) antagonism were used to check neuronal activity. After measurement, neurons were immunostained to check morphology and density. Recorded spikes were analyzed with the software Neuroexplorer (Nex Technologies, Madison, Ala., USA). For cortical organoids, 1-month organoids were plated on MEA plates and recordings were collected with a Maestro MEA system and AxIS Software Spontaneous Neural Configuration (Axion Biosystems, Atlanta, Ga., USA) using a customized script. The plate rested in the machine for three minutes followed by four minutes of recording. Axion Biosystems' Neural Metrics Tool classified electrodes with at least 5 spikes/min as active. […] The synchrony index was calculated using a 20 ms cross-correlogram synchrony window was used to determine the synchrony index. […]

control neurons = assay: Effect of treatment on control neurons
Method: as §1
Pharmacologic screening identifies two compounds that specifically reverse MECP2-KO phenotypes. 14 commercially available pharmacologic compounds with mechanisms of action that counteract the synapse and neurotransmitter pathologies were selected and which are identified in FIG. 5B. […] MECP2-KO and control neurons were treated with each of the 14 compounds and employed a tiered series of assays to identify those that could selectively rescue MECP2-KO pathology without affecting controls. […] The capacity of these compounds to increase pre and post co-localized synaptic puncta in MECP2-KO neurons were evaluated, again eliminating the drugs that affected control neurons (see FIG. 5F-G, and FIG. 6C-D).

[3] = test system: MECP2-mosaic (CTR/KO) neurospheres; assay: Neurosphere size (diameter); details: 8-week MECP2-mosaic neurospheres, P=0.79
Excerpt: Nefiracetam and PHA 543613 increase activity in MECP2-mosaic neurospheres. Because MECP2 resides on the X chromosome, random X-inactivation in females can produce a genetic pattern of mosaicism, with consequent phenotypic gradation, in which some cells express the normal allele while others are mutant. Therefore, as the next stage to evaluate the two drug candidates, a neurosphere model of MECP2 mosaicism was developed to mimic the female RTT brain by combining different proportions of control and MECP2-KO NPCs (see FIG. 7A-C). […] Calcium transient frequency in MECP2-mosaic neurospheres was increased by treatment with Nefiracetam in isolation (1 μM, P<0.05) and when combined with PHA 543613 (10 μM, P<0.001; FIG. 7H), but calcium transient amplitude was unaffected by either compound (P=0.255; FIG. 7I). To investigate the impact of the drug treatments on the electrophysiological properties of the MECP2-mosaic model, neurospheres treated with 1 μM Nefiracetam, 1 μM PHA 543613, or both Nefiracetam and PHA 543613 were plated to perform MEA analysis. […] Because each drug conferred a benefit to MECP2-mosaic neurospheres, both Nefiracetam and PHA 543613 were retained for further evaluation in a more complex human neurodevelopmental model.

MECP2-KO neurons [4] = assay: Neuronal morphology (neurites, spine density); details: vs KO untreated
Method: Spine density and morphology/stability/motility. pHIV7/Syn-EGFP lentivirus was prepared by transfecting HEK cells using the transfection agent polyethyleneimine (Polysciences, Inc., Warrington, Pa., USA), pSyn-EGFP and packaging plasmids pMDL, Rev RSV and VSVG. During cortical neuron differentiation, on day 40, control and MECP2dup neurons were transduced with pHIV7/syn-EGFP. Post transduction, neurons were further differentiated until day 70 and were fixed with 4% PFA and further processed for imaging. Confocal images were obtained using a confocal laser-scanning microscope (Nikon), 60× oil objective, with a sequential acquisition setting at 4096×4096 pixels resolution. Each image is a Z-series projection of ˜7 to 15 images, averaged 2 times and taken at 0.5 μm depth intervals. GFP-labeled differentiated neurons were chosen randomly for quantification. Quantitative analysis was performed in a blinded manner. Dendrites on primary branches were selected randomly and for each neuron two to three segments of 10 μm were analyzed. Morphometric measurements were performed manually using the ImageJ software (1.44p version). Each spine on the dendrites was manually traced. The length and head width of each spine was automatically measured and used to categorize the spines. Specifically, spines where defined as thin and filopodia (immature) or mushroom and stubby (mature) according to the criteria defined previously. Twenty-two (51 segments of 10 μm) and 18 (42 segments of 10 μm) neurons were analyzed for the control and MECP2dup neurons, respectively; two clones for each condition.
Analysis of neuronal morphology. PSC-derived neuronal morphometry was performed as described in Chailangkarn et al. Briefly, neurons with branching neurites featuring dendritic spine-like protrusions were selected, and neuronal morphology was quantified using Neurolucida v9 (MBF Bioscience, Williston, Vt.) via Nikon Eclipse E600 microscope (40× oil). Measurements were as follows: Spine number: number of spines protruding from neurites; soma size: soma area on cross-section; spine length: summed length of all spines per neuron. The rater traced the same neuron after a period of time to ensure intra-rater reliability.

MECP2-KO neurons [5] = assay: Nuclei size in neurons; details: vs KO untreated
[6] = test system: MECP2-mosaic (CTR/KO) neurospheres; assay: Nuclei size in neurospheres; details: vs CTR/KO untreated

SMILES | frequency of calcium oscillations (MECP2-KO neurons [1]) | percentage of active neurons (MECP2-KO neurons [1]) | MEA spike frequency / network spiking activity (MECP2-KO neurons [2]) | effect on controls (control neurons) | neurosphere diameter [3] | number of neurites (MECP2-KO neurons [4]) | total neurite length (MECP2-KO neurons [4]) | nuclei size in neurons (MECP2-KO neurons [5]) | nuclei size in neurospheres [6]
O=C(N[C@H]1CN2CCC1CC2)c1cc2ccoc2cn1 [PHA 543613, N-[(3R)-1-azabicyclo[2.2.2]oct-3-yl]furo[2,3-c]pyridine-5-carboxamide] | increases; also recorded: significantly increase | increase | increases network spiking activity; also recorded: restore | leaving controls unaffected | did not alter | did not increase; also recorded: did not rescue | did not increase; also recorded: did not rescue | did not rescue | did not rescue
Cc1cccc(C)c1NC(=O)CN1CCCC1=O [Nefiracetam, nefiracetam] | increases; also recorded: significantly increase | increase | increases network spiking activity; also recorded: restore | leaving controls unaffected | did not alter | did not increase; also recorded: did not rescue | did not increase; also recorded: did not rescue | did not rescue | did not rescue

From patent US20230102192A1, “THERAPIES FOR THE TREATMENT OF DISEASES AND DISORDERS ASSOCIATED WITH ABNORMAL EXPRESSION OF A NEURAL-ASSOCIATED GENE” (The Regents of the University of California, priority 2020, published 2023)
